Experimental data from EP2140864A2 (H. Lundbeck A/S, priority 2001, dated 2002).
Read-outs that look alike come from different tables or passages of the source.

Key:
human dopamine D2 = target: T1, human dopamine D2 (Homo sapiens, UniProt P14416); test: Radioligand binding, dopamine D2 receptor
T1 construct: purchased BioSignal, Inc. (Montreal, Canada)
Text: (§1) Other receptors: Cell membranes expressing human dopamine D1, D2, D4 and rat D3 receptors were purchased through BioSignal, Inc. (Montreal, Canada). Binding assays using the histamine H1 receptor; dopamine receptors; and α1A, α1E, and α2 adrenergic receptors may be carried out according to the procedures described in U.S. Patent No. 5,780,485, the disclosure of which is hereby incorporated by reference in its entirety into this application. Binding assays using the dopamine D5 receptor may be carried out according to the procedures described in U.S. Patent No. 5,882,855, the disclosure of which is hereby incorporated by reference in its entirety into this application. Binding assays for the human α1D adrenergic receptor may be carried out according to the procedures described in U.S. Patent No. 6,156,518, the disclosure of which is hereby incorporated by reference in its entirety into this application.
(§2) Binding data were analyzed using nonlinear regression and statistical techniques available in the GraphPAD Prism package (San Diego, CA). Enzymatic assay data were derived from a standard curve of reference compound data.

human α1A adrenoceptor = target: T2, human α1A adrenoceptor (Homo sapiens, UniProt P35348); test: Radioligand binding, α1A adrenergic receptor
T2 construct: expressed in transfected cells
T2 sequence (P35348 1-466): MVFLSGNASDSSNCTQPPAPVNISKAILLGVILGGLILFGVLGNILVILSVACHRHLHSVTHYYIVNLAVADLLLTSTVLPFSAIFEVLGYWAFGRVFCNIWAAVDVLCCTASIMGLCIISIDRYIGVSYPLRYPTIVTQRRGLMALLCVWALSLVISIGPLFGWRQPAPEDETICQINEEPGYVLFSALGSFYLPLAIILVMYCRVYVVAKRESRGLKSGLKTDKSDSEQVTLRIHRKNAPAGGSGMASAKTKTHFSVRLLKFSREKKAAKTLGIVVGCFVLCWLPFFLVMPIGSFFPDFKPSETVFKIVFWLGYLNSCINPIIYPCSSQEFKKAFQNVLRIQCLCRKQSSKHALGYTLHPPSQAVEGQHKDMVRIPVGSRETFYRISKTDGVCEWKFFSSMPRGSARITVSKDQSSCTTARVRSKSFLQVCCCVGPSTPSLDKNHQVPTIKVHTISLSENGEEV
Text: as §1, §2

human α1B adrenoceptor = target: T3, human α1B adrenoceptor (Homo sapiens, UniProt P35368); test: Radioligand binding, α1B adrenergic receptor
T3 construct: expressed in transfected cells
T3 sequence (P35368 1-520): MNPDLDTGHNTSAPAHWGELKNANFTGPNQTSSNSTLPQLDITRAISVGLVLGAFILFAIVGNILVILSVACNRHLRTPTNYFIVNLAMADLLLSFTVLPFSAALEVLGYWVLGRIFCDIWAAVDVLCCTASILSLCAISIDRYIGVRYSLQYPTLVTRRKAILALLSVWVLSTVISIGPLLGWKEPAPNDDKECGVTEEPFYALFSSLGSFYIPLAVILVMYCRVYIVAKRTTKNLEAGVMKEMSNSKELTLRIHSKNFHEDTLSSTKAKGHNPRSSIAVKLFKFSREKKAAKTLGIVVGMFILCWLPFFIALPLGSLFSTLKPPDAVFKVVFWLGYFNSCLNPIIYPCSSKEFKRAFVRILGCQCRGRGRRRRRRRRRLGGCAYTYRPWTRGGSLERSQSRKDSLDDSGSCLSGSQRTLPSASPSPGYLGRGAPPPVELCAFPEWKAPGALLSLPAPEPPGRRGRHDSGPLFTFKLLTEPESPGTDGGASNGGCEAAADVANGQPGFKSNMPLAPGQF

human 5HT7 = target: T4, human 5HT7 (Homo sapiens, UniProt P34969); test: Radioligand binding, 5HT7 receptor ([3H]-serotonin)
T4 construct: expressed in transfected cells
Procedure: Human 5HT1B, 5HT1D, 5HT1E, 5HT1F, and 5HT7 Receptors: The cell lysates of LM(tk-) clonal cell line stably transfected with the genes encoding each of these 5HT receptor-subtypes were prepared as described above. Cell membranes were suspended in 50mM Tris-HCl buffer (pH 7.4 at 37°C) containing 10 mM MgCl2, 0.2 mM EDTA, 10 µM pargyline, and 0.1% ascorbate. […] Nonspecific binding was determined in the presence of 10 µM serotonin. The bound radioligand was separated by filtration through GF/B filters using a cell harvester.
as §2

human α2A adrenoceptor = target: T5, human α2A adrenoceptor (Homo sapiens, UniProt P08913); test: Radioligand binding, α2A adrenergic receptor
T5 construct: expressed in transfected cells
T5 sequence (P08913 1-465): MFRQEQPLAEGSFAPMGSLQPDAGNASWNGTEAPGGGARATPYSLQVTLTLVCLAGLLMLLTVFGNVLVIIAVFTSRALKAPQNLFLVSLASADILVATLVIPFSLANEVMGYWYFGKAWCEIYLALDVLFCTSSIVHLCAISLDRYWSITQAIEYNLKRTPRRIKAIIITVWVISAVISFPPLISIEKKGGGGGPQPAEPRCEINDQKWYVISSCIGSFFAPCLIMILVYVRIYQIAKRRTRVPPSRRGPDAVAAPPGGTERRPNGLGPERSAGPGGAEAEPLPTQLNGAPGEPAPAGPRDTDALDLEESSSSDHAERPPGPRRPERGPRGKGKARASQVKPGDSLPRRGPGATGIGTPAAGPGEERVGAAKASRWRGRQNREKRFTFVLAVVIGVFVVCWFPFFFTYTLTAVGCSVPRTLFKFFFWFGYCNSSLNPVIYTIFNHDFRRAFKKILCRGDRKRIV
Text: as §1, §2

dopamine D5 receptor = target: T6, dopamine D5 receptor (Homo sapiens, UniProt P21918); test: Radioligand binding, dopamine D5 receptor
T6 construct: expressed in transfected cells
Text: as §1, §2

[1] = Table 10; Ki hD2 divided by Ki hGAL3
[2] = Table 10; Ki hα1A divided by Ki hGAL3
[3] = Table 10; Ki hα1B divided by Ki hGAL3
[4] = Table 8; Ki h5HT7 divided by Ki hGAL3
[5] = Table 10; Ki hα2A divided by Ki hGAL3
[6] = Table 10; Ki hD5 divided by Ki hGAL3

T1 sequence (P14416 whole entry): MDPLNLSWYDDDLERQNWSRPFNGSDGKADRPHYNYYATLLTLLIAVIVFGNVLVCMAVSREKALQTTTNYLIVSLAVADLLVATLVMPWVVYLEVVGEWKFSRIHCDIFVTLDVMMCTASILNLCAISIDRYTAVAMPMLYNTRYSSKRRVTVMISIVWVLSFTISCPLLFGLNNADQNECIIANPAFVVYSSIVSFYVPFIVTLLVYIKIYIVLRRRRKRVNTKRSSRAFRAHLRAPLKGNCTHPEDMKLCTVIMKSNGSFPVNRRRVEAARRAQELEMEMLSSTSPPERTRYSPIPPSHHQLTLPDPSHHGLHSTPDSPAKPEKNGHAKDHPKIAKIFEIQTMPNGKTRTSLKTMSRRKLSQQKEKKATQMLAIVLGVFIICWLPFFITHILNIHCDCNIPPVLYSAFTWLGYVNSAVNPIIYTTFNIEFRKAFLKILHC
T4 sequence (P34969 1-445 isoform P34969-2): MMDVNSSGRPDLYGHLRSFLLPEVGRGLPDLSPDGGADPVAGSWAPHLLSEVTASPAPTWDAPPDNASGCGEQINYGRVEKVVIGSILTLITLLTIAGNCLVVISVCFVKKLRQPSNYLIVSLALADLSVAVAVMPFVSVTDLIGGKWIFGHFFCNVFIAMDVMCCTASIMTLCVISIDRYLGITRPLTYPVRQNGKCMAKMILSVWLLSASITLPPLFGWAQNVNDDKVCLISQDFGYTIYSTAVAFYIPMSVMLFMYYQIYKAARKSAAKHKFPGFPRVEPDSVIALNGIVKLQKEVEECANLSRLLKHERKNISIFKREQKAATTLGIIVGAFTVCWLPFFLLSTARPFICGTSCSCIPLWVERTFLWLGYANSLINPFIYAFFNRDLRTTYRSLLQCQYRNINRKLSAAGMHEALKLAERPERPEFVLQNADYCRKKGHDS
T6 sequence (P21918 whole entry): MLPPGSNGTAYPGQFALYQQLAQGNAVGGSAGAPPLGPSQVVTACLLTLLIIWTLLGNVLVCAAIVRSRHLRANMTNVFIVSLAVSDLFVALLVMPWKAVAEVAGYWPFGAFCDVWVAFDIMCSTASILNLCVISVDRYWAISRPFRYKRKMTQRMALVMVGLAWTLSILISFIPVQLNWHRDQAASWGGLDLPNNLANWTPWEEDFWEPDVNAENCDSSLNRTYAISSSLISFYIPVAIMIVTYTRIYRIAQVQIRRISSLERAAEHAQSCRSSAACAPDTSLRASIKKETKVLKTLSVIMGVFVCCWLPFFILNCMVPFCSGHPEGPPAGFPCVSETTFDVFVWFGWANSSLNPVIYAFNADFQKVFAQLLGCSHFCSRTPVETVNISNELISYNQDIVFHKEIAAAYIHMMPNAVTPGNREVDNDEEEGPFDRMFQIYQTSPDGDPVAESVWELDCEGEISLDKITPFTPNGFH

Row | SMILES | Ki (human dopamine D2; Table 9; read-out: hD2 Ki) [nM] | selectivity ratio hD2 (human dopamine D2; [1]) | Ki (human α1A adrenoceptor; Table 9; read-out: hα1A Ki) [µM] | selectivity ratio hα1A (human α1A adrenoceptor; [2]) | Ki (human α1B adrenoceptor; Table 9; read-out: hα1B Ki) [µM] | selectivity ratio hα1B (human α1B adrenoceptor; [3]) | Ki (human 5HT7; Table 7; read-out: h5HT7 Ki) [µM] | selectivity ratio h5HT7 (human 5HT7; [4]) | Ki (human α2A adrenoceptor; Table 9; read-out: hα2A Ki) [µM] | selectivity ratio hα2A (human α2A adrenoceptor; [5]) | Ki (dopamine D5 receptor; Table 9; read-out: hD5 Ki) [nM] | selectivity ratio hD5 (dopamine D5 receptor; [6]) | Ki (human dopamine D2; read-out: hD2 Ki; Table 9) [nM] | Ki (human α1A adrenoceptor; read-out: hα1A Ki; Table 9) [µM] | Ki (human α1B adrenoceptor; read-out: hα1B Ki; Table 9) [µM] | Ki (human 5HT7; read-out: h5HT7 Ki; Table 7) [µM] | Ki (human α2A adrenoceptor; read-out: hα2A Ki; Table 9) [µM] | Ki (dopamine D5 receptor; read-out: hD5 Ki; Table 9) [nM]
1 | Cc1ccc(Nc2cc(N3CCCCC3)nc(N(C)CCc3c[nH]c4ccccc34)n2)cc1 [Example 11] | 782 | 9 | 0.926 | 10 | 1.44 | 16 | 1.01 | 11 | 1.82 | 20 | 64 | 0.7 |  |  |  |  |  | 
2 | O=C1C(=Nc2ccc(Br)cc2)c2ccccc2N1c1ccccc1 [Example 98, 3-[(4-BROMOPHENYL)IMINO]-1-PHENYL-1,3-DIHYDRO-2H-INDOL-2-ONE] | 3790 | >100 | 14.5 | >100 | 31.7 | >100 | 8.46 | >100 | 23.2 | >100 | 1200 | >30 |  |  |  |  |  | 
3 | O=C1C(=Nc2ccc(C(F)(F)F)cc2)c2ccccc2N1c1ccccc1 [Example 95, 1-PHENYL-3-[[4-(TRIFLUOROMETHYL)PHENYL]IMINO]-1,3-DIHYDRO-2H-INDOL-2-ONE] | 9720 | >100 | 13.1 | >100 | 32.5 | >100 | 11.6 | >100 | 30.1 | >100 | 2590 | >30 |  |  |  |  |  | 
4 | O=C1C(=Nc2ccc(Cl)cc2)c2ccccc2N1c1ccccc1 [Example 97, 3-[(4-CHLOROPHENYL)IMINO]-1-PHENYL-1,3-DIHYDRO-2H-INDOL-2-ONE] | > 50000 | >100 | 16.9 | >100 | 45.8 | >100 | 11.3 | >100 | 13.6 | >100 | 10100 | >100 |  |  |  |  |  | 
5 | O=C1C(=Nc2cccc(C(F)(F)F)c2)c2ccccc2N1c1ccccc1 [Example 92, 1-PHENYL-3- [[3-(TRIFLUOROMETHYL)PHENYL]IMINO]-1,3-DIHYDRO-2H-INDOL-2-ONE] |  | >100 |  |  |  | >100 |  |  |  | >100 |  | >100 |  |  |  |  |  | 
6 | Cc1ccc(Nc2cc(N3CCCCC3)nc(N3CCN(c4ncccc4C(F)(F)F)CC3)n2)cc1 [Example 34] | 2500 | >100 | 3.76 | >100 | 15 | >100 | 4.44 | >100 | 3.68 | >100 | 111 | 5 |  |  |  |  |  | 
7 | CN(C)c1cc(Nc2ccc(Cl)c(Cl)c2)nc(Nc2ccccc2)n1 [Example 60] | 26800 | >100 | 13.6 | >100 | 40.6 | >100 | 3.24 | >30 | 10.8 | >100 | 538 | 6 |  |  |  |  |  | 
8 | COC[C@@H]1[C@@H](c2ccccc2)OCCN1c1nc(Nc2ccc(C)cc2)cc(N2CCCCC2)n1 [Example 49] |  | 28 |  | >30 |  | >30 |  | >30 |  | 22 |  | 2 | 5940 | 6.65 | 18.9 | 12.3 | 4.73 | 328
9 | O=C1C(=Nc2cccc(Cl)c2)c2ccccc2N1c1ccccc1 [Example 94, 3-[(3-CHLOROPHENYL)IMINO]-1-PHENYL-1,3-DIHYDRO-2H-INDOL-2-ONE] | 6250 | >100 | 12.7 | >100 | 31.1 | >100 | 8.02 | >100 | 12.7 | >100 | 727 | 15 |  |  |  |  |  | 
10 | COc1cccc(Nc2cc(N3CCCCC3)nc(N(C)CCc3c[nH]c4ccccc34)n2)c1 [Example 17] | 1810 | 21 | 0.996 | 11 | 1.17 | 13 | 1.8 | 21 | 3.52 | >30 | 89 | 1 |  |  |  |  |  | 
11 | Cc1ccc(Nc2cc(N3CCCCC3)nc(N(C)CCc3ccccc3)n2)cc1 [Example 22] | 1500 | >30 | 1.28 | >30 | 1.58 | >30 | 2.67 | >30 | 0.906 | >30 | 63 | 2 |  |  |  |  |  | 
12 | CN(CCc1c[nH]c2ccccc12)c1nc(Nc2ccc(F)c(F)c2)cc(N2CCCCC2)n1 [Example 15] | 2180 | 30 | 3.39 | 46 | 0.853 | 12 | 2.53 | >30 | 14.4 | >100 | 78 | 1 |  |  |  |  |  | 
13 | Cc1ccc(Nc2cc(N(C)C)nc(N(C)CCc3c[nH]c4ccccc34)n2)cc1 [Example 77] | 910 | 11 | 0.834 | 11 | 0.452 | 6 | 1.55 | 20 | 0.315 | 4 | 122 | 2 |  |  |  |  |  | 
